Assay results reported in ChEMBL document CHEMBL4261580, “Novel antitumor compound optimized from natural saponin Albiziabioside A induced caspase-dependent apoptosis and ferroptosis as a p53 activator through the mitochondrial pathway” (Eur J Med Chem, 2018).
The source made the active and inactive calls. The rule behind the calls is not given here.

Key:
HCT-116 [1] = assay: Antiproliferative activity against human HCT116 cells after 72 hrs by MTT assay; type: functional, cell-based; settings: HCT-116, 72 h
HepG2 = assay: Antiproliferative activity against human HepG2 cells after 72 hrs by MTT assay; type: functional, cell-based; settings: HepG2, 72 h
MCF7 = assay: Antiproliferative activity against human MCF7 cells after 72 hrs by MTT assay; type: functional, cell-based; settings: MCF7, 72 h
A549 = assay: Antiproliferative activity against human A549 cells after 72 hrs by MTT assay; type: functional, cell-based; settings: A549, 72 h
MGC-803 = assay: Antiproliferative activity against human MGC803 cells after 72 hrs by MTT assay; type: functional, cell-based; settings: MGC-803, 72 h
HCT-116 [2] = assay: Antitumor activity against human HCT116 cells xenografted in BALB/c nude mouse assessed as decrease in tumor size at 20 mg/kg, iv administered once per day for 14 days and measured every 2 days; type: functional
HCT-116 [3] = assay: Antitumor activity against human HCT116 cells xenografted in BALB/c nude mouse assessed as decrease in tumor weight at 20 mg/kg, iv administered once per day for 14 days and measured every 2 days; type: functional
[4] = Antiproliferative activity against human HBMEC cells after 72 hrs by MTT assay; type: cell-based
L02 = assay: Antiproliferative activity against human LO2 cells after 72 hrs by MTT assay; type: cell-based; settings: L02, 72 h
[5] = Antiproliferative activity against human CCD-841 cells after 72 hrs by MTT assay; type: cell-based; settings: CCD-841, 72 h
HaCaT = assay: Antiproliferative activity against human HaCaT cells after 72 hrs by MTT assay; type: cell-based
BEAS-2B = assay: Antiproliferative activity against human BEAS2B cells after 72 hrs by MTT assay; type: functional, cell-based

| IC50 (HCT-116 [1]) [µM] | IC50 (HepG2) [µM] | IC50 (MCF7) [µM] | IC50 (A549) [µM] | IC50 (MGC-803) [µM] | Structure (SMILES) | Activity (HCT-116 [2]) | Activity (HCT-116 [3]) | IC50 [4] [µM] | IC50 (L02) [µM] | IC50 [5] [µM] | IC50 (HaCaT) [µM] | IC50 (BEAS-2B) [µM] |
| --- | --- | --- | --- | --- | --- | --- | --- | --- | --- | --- | --- | --- |
| 16 | 11.4 | 21.9 | 17.6 | 20.8 | CC(=O)N[C@H]1[C@H](O[C@H]2CC[C@]3(C)[C@H]4CC=C5[C@@H]6CC(C)(C)CC[C@]6(C(=O)O)CC[C@@]5(C)[C@]4(C)CC[C@H]3C2(C)C)O[C@H](CO[C@@H]2OC[C@H](O)[C@H](O)[C@@H]2O)[C@@H](O)[C@@H]1O | Active | Active |  |  |  |  |  |
| 9.93 | 5.51 | 15 | 10.2 | 7.7 | CC(=O)N[C@H]1[C@H](O[C@H]2CC[C@]3(C)[C@H]4CC=C5[C@@H]6CC(C)(C)CC[C@]6(C(=O)OCc6cn(-c7cccc(Br)c7)nn6)CC[C@@]5(C)[C@]4(C)CC[C@H]3C2(C)C)O[C@H](CO[C@@H]2OC[C@H](O)[C@H](O)[C@@H]2O)[C@@H](O)[C@@H]1O |  |  | 20.4 | 35.4 | 18.2 | 39.3 | 11.3 |
| 12.2 | 5.39 | 10.8 | 9.08 | 10.1 | CC(=O)N[C@H]1[C@H](O[C@H]2CC[C@]3(C)[C@H]4CC=C5[C@@H]6CC(C)(C)CC[C@]6(C(=O)OCc6cn(-c7cccc(I)c7)nn6)CC[C@@]5(C)[C@]4(C)CC[C@H]3C2(C)C)O[C@H](CO[C@@H]2OC[C@H](O)[C@H](O)[C@@H]2O)[C@@H](O)[C@@H]1O |  |  | 18.7 | 27.4 | 36.5 | 29.5 | 14.6 |
